System: squalene synthetase
Assay: Squalene synthetase assay (rat liver microsomes, [4-14C]farnesyl pyrophosphate)
Assay type: biochemical
Settings: C18 HPLC fractions of Curvularia lunata (MF5573 or MF5572) fermentation extract, shown to contain Compound (I)
Protocol: Male, Charles River CD rats (120 to 150 g) were fed a diet containing 0.1% lovastatin for 4 days. The livers from these rats were homogenized in 5 volumes (mL/g) of ice cold 50 mm HEPES (4-(2-hydroxyethyl)-1-piperazine-ethanesulfonic acid), 5 mm EDTA(ethylenediaminetetraacetic acid) pH 7.5 with a Potter-Elvehjem type tissue grinder. The homogenate was centrifuged twice at 20,000×g for 15 min. at 4° C., discarding the pellet each time. The supernatant was then centrifuged at 100,000×g for 1 hr. at 4° C. The resulting microsomal pellet was resuspended in a volume of the above homogenizing buffer equal to one-fifth the volume of the original homogenate. This microsomal preparation has a protein concentration of about 7 mg/ml. The microsomal suspensions were stored in aliquots at -70° C. Squalene synthetase activity in these aliquots is stable for at least several months.
SQUALENE SYNTHETASE ASSAY
Reactions were performed in 16×125 mm screw cap test tubes. A batch assay mix was prepared from the following solution:
This assay mix was degassed under a vacuum and flushed with N2. […] Ten mL of scintillation fluid was added to the heptane solution and radio-activity was determined by liquid scintillation counting.
Percent inhibition is calculated by the formula: [formula]

activity in the squalene synthetase assay: active
Compound: C=C(CCC12OC(C(=O)O)C(O)(C(=O)O)C(C(=O)O)(O1)C(OC(=O)/C=C/C(C)CC(C)CC)C2O)C(OC(C)=O)C(C)Cc1ccccc1 (stereo not shown) [Compound (I)]
